Assay results as given in PubChem BioAssay AID256 (DTP/NCI, 2004).
Several values for one entry are separate records, joined by “and”; a condition that tells them apart may be missing. Equal values may be shown once. Inconclusive results and toxic doses are left out. How the source made its calls: active means survival T/C of 150% or more; inactive means T/C below 125% in these data.

System: CD2F1 mice, L1210 leukemia ip, survival T/C
Test: NCI In Vivo Anticancer Drug Screen. Data for tumor model L1210 Leukemia (intraperitoneal) in CD2F1 (CDF1) mice
Conditions: higher = longer survival
Method in brief: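 Each value reflects a quotient of treated over vehicle control outcomes in mice with a transplanted tumor.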

[1] = endpoint: mean survival time, dose: 100.0 mg/kg/injection, schedule: Q01DX001 (ip), vehicle: saline
[2] = endpoint: mean survival time, dose: 200.0 mg/kg/injection, schedule: Q01DX001 (ip), vehicle: saline
[3] = endpoint: mean survival time, dose: 400.0 mg/kg/injection, schedule: Q01DX001 (ip), vehicle: saline
[4] = endpoint: mean survival time, dose: 100.0 mg/kg/injection, schedule: Q04DX003 (ip), vehicle: saline with Tween-80
[5] = endpoint: mean survival time, dose: 200.0 mg/kg/injection, schedule: Q04DX003 (ip), vehicle: saline with Tween-80
[6] = endpoint: mean survival time, dose: 400.0 mg/kg/injection, schedule: Q04DX003 (ip), vehicle: saline with Tween-80
[7] = endpoint: mean survival time, dose: 75.0 mg/kg/injection, schedule: Q01DX001 (ip), vehicle: saline
[8] = endpoint: mean survival time, dose: 150.0 mg/kg/injection, schedule: Q01DX001 (ip), vehicle: saline
[9] = endpoint: mean survival time, dose: 300.0 mg/kg/injection, schedule: Q01DX001 (ip), vehicle: saline
[10] = endpoint: mean survival time, dose: 100.0 mg/kg/injection, schedule: Q04DX002 (ip), vehicle: saline with Tween-80
[11] = endpoint: mean survival time, dose: 200.0 mg/kg/injection, schedule: Q04DX002 (ip), vehicle: saline with Tween-80
[12] = endpoint: mean survival time, dose: 400.0 mg/kg/injection, schedule: Q04DX002 (ip), vehicle: saline with Tween-80
[13] = endpoint: mean survival time, dose: 50.0 mg/kg/injection, schedule: Q01DX009 (ip), vehicle: saline with Tween-80
[14] = endpoint: mean survival time, dose: 100.0 mg/kg/injection, schedule: Q01DX009 (ip), vehicle: saline with Tween-80
[15] = endpoint: mean survival time, dose: 200.0 mg/kg/injection, schedule: Q01DX009 (ip), vehicle: saline with Tween-80
[16] = endpoint: mean survival time, dose: 50.0 mg/kg/injection, schedule: Q01DX009 (ip), vehicle: saline
[17] = endpoint: mean survival time, dose: 100.0 mg/kg/injection, schedule: Q01DX009 (ip), vehicle: Klucel (hydroxypropylcellulose) (HPC)
[18] = endpoint: mean survival time, dose: 200.0 mg/kg/injection, schedule: Q01DX009 (ip), vehicle: Klucel (hydroxypropylcellulose) (HPC)
[19] = endpoint: mean survival time, dose: 400.0 mg/kg/injection, schedule: Q01DX009 (ip), vehicle: Klucel (hydroxypropylcellulose) (HPC)

Measured: T/C

N#CCN(CC#N)c1ccccc1
inactive: endpoint: mean survival time, dose: 1.56 mg/kg/injection, schedule: Q01DX001 (ip), vehicle: other 95 % of control | endpoint: mean survival time, dose: 3.13 mg/kg/injection, schedule: Q01DX001 (ip), vehicle: other 95 % of control | endpoint: mean survival time, dose: 6.25 mg/kg/injection, schedule: Q01DX001 (ip), vehicle: other 98 % of control and 100 % of control

COc1cc(C(=O)C=[N+]=[N-])cc(OC)c1OC(C)=O
inactive: [1] 91 % of control | [2] 96 % of control | [3] 110 % of control

CC(C)CC(NC(=O)c1ccccc1)C(=O)O (stereo not given)
inactive: [4] 95 % of control | [5] 95 % of control | [6] 101 % of control

CC(C)CP(=O)(CC(C)C)CC(C)C
inactive: endpoint: mean survival time, dose: 1.56 mg/kg/injection, schedule: Q04DX003 (ip), vehicle: saline with Tween-80 98 % of control | endpoint: mean survival time, dose: 3.13 mg/kg/injection, schedule: Q04DX003 (ip), vehicle: saline with Tween-80 98 % of control | endpoint: mean survival time, dose: 6.25 mg/kg/injection, schedule: Q04DX003 (ip), vehicle: saline with Tween-80 101 % of control

CCCCCCCCCCCCCCCCCC(=O)N1CC[N+](C)(C)CC1
inactive: [7] 101 % of control | [8] 100 % of control | [9] 107 % of control

CCOC(=O)/C=C1/C=C(C)CC(C)(C)C1 (tested in a mixture with another compound)
inactive: [10] 98 % of control | [11] 91 % of control | [12] 87 % of control

COc1cc(OC)c(NC(=O)Nc2ccc(Cl)c(C(F)(F)F)c2)cc1Cl
inactive: [13] 93 % of control | [14] 93 % of control | [15] 93 % of control

COC(=O)CCCCCCCCCC(=O)OC
inactive: [10] 87 % of control | [11] 102 % of control | [12] 98 % of control

CC(C)(C)SC1C(O)C(CO)OC1n1ccc(N)nc1=O (stereo not given)
inactive: endpoint: median survival time, dose: 12.5 mg/kg/injection, schedule: Q01DX005 (ip), vehicle: saline 103 % of control | endpoint: median survival time, dose: 25.0 mg/kg/injection, schedule: Q01DX005 (ip), vehicle: saline 96 % of control | endpoint: median survival time, dose: 50.0 mg/kg/injection, schedule: Q01DX005 (ip), vehicle: saline 103 % of control | endpoint: median survival time, dose: 100.0 mg/kg/injection, schedule: Q01DX005 (ip), vehicle: saline 108 % of control | endpoint: median survival time, dose: 200.0 mg/kg/injection, schedule: Q01DX005 (ip), vehicle: saline 103 % of control

C(CCSC1=NCCN1)CCSC1=NCCN1
inactive: endpoint: mean survival time, dose: 25.0 mg/kg/injection, schedule: Q01DX009 (ip), vehicle: saline 97 % of control | [16] 103 % of control | endpoint: mean survival time, dose: 100.0 mg/kg/injection, schedule: Q01DX009 (ip), vehicle: saline 100 % of control

COC(=O)C1(C)CCOC1=O (stereo not given)
inactive: endpoint: mean survival time, dose: 100.0 mg/kg/injection, schedule: Q04DX002 (ip), vehicle: saline 107 % of control | endpoint: mean survival time, dose: 200.0 mg/kg/injection, schedule: Q04DX002 (ip), vehicle: saline 98 % of control | endpoint: mean survival time, dose: 400.0 mg/kg/injection, schedule: Q04DX002 (ip), vehicle: saline 102 % of control

CCCCOC(=O)C(N)=O
inactive: [17] 94 % of control | [4] 97 % of control | [18] 100 % of control | [5] 100 % of control | [19] 93 % of control | [6] 102 % of control

CC(O)C1OC(n2cnc3c(=O)[nH]cnc32)C(O)C1O (stereo not given)
inactive: endpoint: mean survival time, dose: 12.5 mg/kg/injection, schedule: Q01DX005 (ip), vehicle: distilled water + Tween-80 114 % of control | endpoint: mean survival time, dose: 25.0 mg/kg/injection, schedule: Q01DX005 (ip), vehicle: distilled water + Tween-80 112 % of control | endpoint: mean survival time, dose: 50.0 mg/kg/injection, schedule: Q01DX005 (ip), vehicle: distilled water + Tween-80 104 % of control | endpoint: mean survival time, dose: 100.0 mg/kg/injection, schedule: Q01DX005 (ip), vehicle: distilled water + Tween-80 102 % of control | endpoint: mean survival time, dose: 200.0 mg/kg/injection, schedule: Q01DX005 (ip), vehicle: distilled water + Tween-80 100 % of control | endpoint: median survival time, dose: 8.75 mg/kg/injection, schedule: Q01DX005 (ip), vehicle: distilled water + Tween-80 108 % of control | endpoint: median survival time, dose: 12.5 mg/kg/injection, schedule: Q01DX005 (ip), vehicle: water 97 % of control | endpoint: median survival time, dose: 17.5 mg/kg/injection, schedule: Q01DX005 (ip), vehicle: distilled water + Tween-80 108 % of control | endpoint: median survival time, dose: 25.0 mg/kg/injection, schedule: Q01DX005 (ip), vehicle: saline with Tween-80 98 % of control | endpoint: median survival time, dose: 25.0 mg/kg/injection, schedule: Q01DX005 (ip), vehicle: water 97 % of control | endpoint: median survival time, dose: 35.0 mg/kg/injection, schedule: Q01DX005 (ip), vehicle: distilled water + Tween-80 102 % of control | endpoint: median survival time, dose: 50.0 mg/kg/injection, schedule: Q01DX005 (ip), vehicle: saline with Tween-80 107 % of control | endpoint: median survival time, dose: 50.0 mg/kg/injection, schedule: Q01DX005 (ip), vehicle: water 109 % of control | endpoint: median survival time, dose: 70.0 mg/kg/injection, schedule: Q01DX005 (ip), vehicle: distilled water + Tween-80 97 % of control | endpoint: median survival time, dose: 100.0 mg/kg/injection, schedule: Q01DX005 (ip), vehicle: saline with Tween-80 98 % of control | endpoint: median survival time, dose: 100.0 mg/kg/injection, schedule: Q01DX005 (ip), vehicle: water 98 % of control | endpoint: median survival time, dose: 140.0 mg/kg/injection, schedule: Q01DX005 (ip), vehicle: distilled water + Tween-80 97 % of control | endpoint: median survival time, dose: 200.0 mg/kg/injection, schedule: Q01DX005 (ip), vehicle: saline with Tween-80 109 % of control | endpoint: median survival time, dose: 200.0 mg/kg/injection, schedule: Q01DX005 (ip), vehicle: water 102 % of control | endpoint: median survival time, dose: 400.0 mg/kg/injection, schedule: Q01DX005 (ip), vehicle: saline with Tween-80 101 % of control

CCCCNC(=O)/C=C\C(=O)O
inactive: [4] 97 % of control | [5] 100 % of control | [6] 100 % of control

CC(C)C1CCC(C)C(C(O)(C(F)(F)F)C(F)(F)F)C1O (stereo not given)
inactive: [1] 101 % of control | [10] 98 % of control | [2] 101 % of control | [11] 98 % of control | [3] 97 % of control | [12] 94 % of control

CCNC(=S)NNc1ccccc1
inactive: [13] 103 % of control | [14] 100 % of control | [15] 88 % of control

C=C1C(=O)O[C@@H]2C[C@@H](C)[C@@H]3[C@@H](OC4OC(COC(C)=O)C(O)C(O)C4O)CC(=O)[C@@]3(C)C[C@H]12 (stereo not given in full)
inactive: endpoint: mean survival time, dose: 35.0 mg/kg/injection, schedule: Q01DX009 (ip), vehicle: saline 108 % of control | [16] 95 % of control | endpoint: mean survival time, dose: 75.0 mg/kg/injection, schedule: Q01DX009 (ip), vehicle: saline 102 % of control

CCc1c(-c2ccccc2)c(CN2CCCCC2)c2ccccn12
inactive: [7] 103 % of control | [8] 103 % of control | [9] 113 % of control

CN(C)c1nc(-c2ccncc2)nc(N(C)C)n1
inactive: [10] 92 % of control

O=C(OC1(c2ccccc2)C2CCC1CC2)c1ccc([N+](=O)[O-])cc1 (stereo not given)
inactive: endpoint: mean survival time, dose: 12.5 mg/kg/injection, schedule: Q04DX002 (ip), vehicle: saline with Tween-80 96 % of control | endpoint: mean survival time, dose: 25.0 mg/kg/injection, schedule: Q04DX002 (ip), vehicle: saline with Tween-80 93 % of control | endpoint: mean survival time, dose: 50.0 mg/kg/injection, schedule: Q04DX002 (ip), vehicle: saline with Tween-80 101 % of control

O=C(Nc1cc(Cl)ccc1Cl)c1ccc(C(=O)Nc2cc(Cl)ccc2Cl)cc1
inactive: [14] 94 % of control | [4] 92 % of control | [15] 95 % of control | [5] 96 % of control | endpoint: mean survival time, dose: 400.0 mg/kg/injection, schedule: Q01DX009 (ip), vehicle: saline with Tween-80 94 % of control | [6] 88 % of control

CCOC(=O)c1ccc(NNS(=O)(=O)c2cccc(N)c2)cc1
inactive: [17] 97 % of control | [4] 96 % of control | [18] 93 % of control | [5] 101 % of control | [19] 101 % of control | [6] 95 % of control
